Source: PubChem BioAssay (NCI)
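These data come from cells grown in 96-well plates and exposed to compound for 48 hours at five concentrations. At the GI50, growth is halved. TGI: total growth inhibition.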

Key:
Test in all cases: growth of human tumour cells (NCI), 48 h
HT29 colon = system: HT29 colon
LOX IMVI melanoma = system: LOX IMVI melanoma
OVCAR-5 ovarian = system: OVCAR-5 ovarian
SF-268 CNS = system: SF-268 CNS
HCC-2998 colon = system: HCC-2998 colon
ACHN renal = system: ACHN renal
NCI-H522 lung = system: NCI-H522 lung
HCT-15 colon = system: HCT-15 colon
IGROV1 ovarian = system: IGROV1 ovarian
SK-MEL-2 melanoma = system: SK-MEL-2 melanoma
MALME-3M melanoma = system: MALME-3M melanoma
MDA-MB-231 breast = system: MDA-MB-231 breast
RPMI-8226 leukemia = system: RPMI-8226 leukemia

## COc1ccc(Nc2nc(NS(=O)(=O)c3cc(C)c(Cl)cc3S)n[nH]2)cc1
HT29 colon
  TGI: > 100 µM
LOX IMVI melanoma
  TGI: > 100 µM
OVCAR-5 ovarian
  TGI: > 100 µM
SF-268 CNS
  TGI: > 100 µM
HCC-2998 colon
  TGI: > 100 µM
ACHN renal
  TGI: > 100 µM
NCI-H522 lung
  TGI: > 100 µM
HCT-15 colon
  TGI: > 100 µM
IGROV1 ovarian
  TGI: > 100 µM
SK-MEL-2 melanoma
  TGI: > 100 µM
MALME-3M melanoma
  TGI: > 100 µM
MDA-MB-231 breast
  TGI: > 100 µM
RPMI-8226 leukemia
  TGI: > 100 µM

## Cc1ccc2c(=O)cc(-c3cccs3)[nH]c2n1
HT29 colon
  TGI: > 70.9 µM
LOX IMVI melanoma
  TGI: > 100 µM
OVCAR-5 ovarian
  TGI: > 100 µM
SF-268 CNS
  TGI: > 100 µM
HCC-2998 colon
  TGI: > 83.2 µM
ACHN renal
  TGI: > 100 µM
NCI-H522 lung
  TGI: > 47.4 µM
HCT-15 colon
  TGI: > 100 µM
IGROV1 ovarian
  TGI: > 100 µM
SK-MEL-2 melanoma
  TGI: > 82.7 µM
MALME-3M melanoma
  TGI: > 100 µM
MDA-MB-231 breast
  TGI: > 100 µM
RPMI-8226 leukemia
  TGI: > 49.4 µM

## COC(=O)[C@H](Cc1ccccc1)NC(=O)[C@H](Cc1ccccc1)NC(=O)[C@@H]1CCCN1C(=O)N[C@H]1C2C=CC(C2)C1C(=O)N1CCC[C@H]1C(=O)N[C@@H](C)C(=O)N[C@H](C(=O)OC)C(C)C (some centres undefined)
HT29 colon
  TGI: > 100 µM
LOX IMVI melanoma
  TGI: > 100 µM
OVCAR-5 ovarian
  TGI: > 100 µM
SF-268 CNS
  TGI: > 100 µM
ACHN renal
  TGI: > 100 µM
NCI-H522 lung
  TGI: > 100 µM
HCT-15 colon
  TGI: > 100 µM
IGROV1 ovarian
  TGI: > 100 µM
MALME-3M melanoma
  TGI: > 100 µM
MDA-MB-231 breast
  TGI: > 100 µM

## CCC1(C)N=C(c2cnccn2)NN1c1ccc(Cl)cc1 (centres undefined)
HT29 colon
  TGI: > 100 µM
LOX IMVI melanoma
  TGI: > 100 µM
OVCAR-5 ovarian
  TGI: > 100 µM
SF-268 CNS
  TGI: > 100 µM
ACHN renal
  TGI: > 100 µM
NCI-H522 lung
  TGI: > 100 µM
HCT-15 colon
  TGI: > 100 µM
IGROV1 ovarian
  TGI: > 100 µM
SK-MEL-2 melanoma
  TGI: > 100 µM
MALME-3M melanoma
  TGI: > 100 µM
MDA-MB-231 breast
  TGI: > 100 µM
RPMI-8226 leukemia
  TGI: > 100 µM

## Nn1c(CCCCCCCCc2nnc(COc3ccc(Cl)cc3)n2N)nnc1COc1ccc(Cl)cc1
HT29 colon
  TGI: > 100 µM
OVCAR-5 ovarian
  TGI: > 100 µM
SF-268 CNS
  TGI: > 100 µM
HCC-2998 colon
  TGI: > 100 µM
ACHN renal
  TGI: > 100 µM
NCI-H522 lung
  TGI: > 100 µM
HCT-15 colon
  TGI: > 100 µM
IGROV1 ovarian
  TGI: > 100 µM
SK-MEL-2 melanoma
  TGI: > 100 µM
MALME-3M melanoma
  TGI: > 100 µM
MDA-MB-231 breast
  TGI: > 100 µM
RPMI-8226 leukemia
  TGI: > 100 µM

## CCOC(=O)/C1=C(\C)N(c2ccc(C)cc2)C(=O)c2ccccc2C(=O)c2c(OC(C)=O)ccc(OC(C)=O)c21
HT29 colon
  TGI: 35.7 µM
LOX IMVI melanoma
  TGI: 41.7 µM
OVCAR-5 ovarian
  TGI: > 100 µM
SF-268 CNS
  TGI: > 100 µM
ACHN renal
  TGI: 77.2 µM
NCI-H522 lung
  TGI: 74.1 µM
HCT-15 colon
  TGI: 43.9 µM
IGROV1 ovarian
  TGI: 36.6 µM
SK-MEL-2 melanoma
  TGI: 82.7 µM
MALME-3M melanoma
  TGI: 72.6 µM
MDA-MB-231 breast
  TGI: 83.9 µM
RPMI-8226 leukemia
  TGI: 30.3 µM

## CC1Cn2c(nc3ccccc32)NC1=O (centres undefined)
HT29 colon
  TGI: > 100 µM
LOX IMVI melanoma
  TGI: > 100 µM
OVCAR-5 ovarian
  TGI: > 100 µM
SF-268 CNS
  TGI: > 100 µM
ACHN renal
  TGI: > 100 µM
NCI-H522 lung
  TGI: > 100 µM
HCT-15 colon
  TGI: > 100 µM
IGROV1 ovarian
  TGI: > 100 µM
SK-MEL-2 melanoma
  TGI: > 100 µM
MALME-3M melanoma
  TGI: > 100 µM
MDA-MB-231 breast
  TGI: > 100 µM
RPMI-8226 leukemia
  TGI: > 100 µM

## C/C=C/C(O)P1(=O)N(Cc2ccccc2)[C@@H]2CCCC[C@H]2N1Cc1ccccc1 (some centres undefined)
HT29 colon
  TGI: > 25 µM
LOX IMVI melanoma
  TGI: > 25 µM
OVCAR-5 ovarian
  TGI: > 25 µM
SF-268 CNS
  TGI: > 25 µM
HCC-2998 colon
  TGI: > 25 µM
ACHN renal
  TGI: > 25 µM
NCI-H522 lung
  TGI: > 25 µM
HCT-15 colon
  TGI: > 25 µM
IGROV1 ovarian
  TGI: > 25 µM
SK-MEL-2 melanoma
  TGI: > 25 µM
MALME-3M melanoma
  TGI: > 25 µM
MDA-MB-231 breast
  TGI: > 25 µM

## CC(=O)c1ccc2c3c1[C@@H]1O[C@@H]1c1cccc(c1-3)[C@@H]1O[C@H]21
HT29 colon
  TGI: > 27.9 µM
LOX IMVI melanoma
  GI50: 2.6 µM
  TGI: 6.21 µM
OVCAR-5 ovarian
  TGI: 34.7 µM
SF-268 CNS
  TGI: 27.4 µM
ACHN renal
  TGI: 37.4 µM
NCI-H522 lung
  TGI: 13 µM
HCT-15 colon
  TGI: 12.5 µM
IGROV1 ovarian
  TGI: 2.44 µM
SK-MEL-2 melanoma
  TGI: > 57.1 µM
MALME-3M melanoma
  TGI: 20.3 µM
MDA-MB-231 breast
  TGI: 42.9 µM
RPMI-8226 leukemia
  TGI: > 100 µM

## Cc1ccc2c(c1)[nH]c1cc(C(F)(F)F)ccc1[p+]2=O (centres undefined)
HT29 colon
  TGI: > 100 µM
LOX IMVI melanoma
  TGI: > 100 µM
OVCAR-5 ovarian
  TGI: > 100 µM
SF-268 CNS
  TGI: > 100 µM
HCC-2998 colon
  TGI: > 100 µM
ACHN renal
  TGI: > 100 µM
NCI-H522 lung
  TGI: > 100 µM
HCT-15 colon
  TGI: > 100 µM
IGROV1 ovarian
  TGI: > 100 µM
SK-MEL-2 melanoma
  TGI: > 100 µM
MALME-3M melanoma
  TGI: > 100 µM
MDA-MB-231 breast
  TGI: 49.1 µM

## C[C@H](N)C(=O)Nc1ccc(-c2nc3ccccc3s2)cc1
HT29 colon
  TGI: 38.2 µM
LOX IMVI melanoma
  TGI: > 100 µM
OVCAR-5 ovarian
  TGI: 43.6 µM
SF-268 CNS
  TGI: > 100 µM
HCC-2998 colon
  TGI: 45.8 µM
ACHN renal
  TGI: 32.8 µM
NCI-H522 lung
  TGI: 48 µM
HCT-15 colon
  TGI: 36.2 µM
IGROV1 ovarian
  TGI: 40.4 µM
SK-MEL-2 melanoma
  TGI: 99.4 µM
MALME-3M melanoma
  TGI: 39.5 µM
MDA-MB-231 breast
  TGI: 36.5 µM

## COc1cc(C2SCC(=O)N2c2ccc(-c3ccc(-n4c(-c5ccccc5)nc5ccccc5c4=O)cc3)cc2)cc(OC)c1OC (centres undefined)
HT29 colon
  TGI: > 100 µM
OVCAR-5 ovarian
  TGI: > 100 µM
SF-268 CNS
  TGI: > 100 µM
HCC-2998 colon
  TGI: > 100 µM
ACHN renal
  TGI: > 100 µM
NCI-H522 lung
  TGI: 62.3 µM
HCT-15 colon
  TGI: > 100 µM
IGROV1 ovarian
  TGI: > 100 µM
SK-MEL-2 melanoma
  TGI: 56.5 µM
MALME-3M melanoma
  TGI: > 100 µM
MDA-MB-231 breast
  TGI: > 100 µM
RPMI-8226 leukemia
  TGI: > 100 µM

## NC(=O)NNC(=O)c1nc[nH]c1[N+](=O)[O-]
HT29 colon
  TGI: > 100 µM
LOX IMVI melanoma
  TGI: > 100 µM
OVCAR-5 ovarian
  TGI: > 100 µM
SF-268 CNS
  TGI: > 100 µM
HCC-2998 colon
  TGI: > 100 µM
NCI-H522 lung
  TGI: > 100 µM
HCT-15 colon
  TGI: > 100 µM
IGROV1 ovarian
  TGI: > 100 µM
SK-MEL-2 melanoma
  TGI: > 100 µM
MALME-3M melanoma
  TGI: > 100 µM
MDA-MB-231 breast
  TGI: > 100 µM
RPMI-8226 leukemia
  TGI: > 100 µM

## C=CCCC(=O)CC(O)(C(F)(F)F)C(F)(F)F
HT29 colon
  TGI: > 100 µM
LOX IMVI melanoma
  TGI: > 100 µM
OVCAR-5 ovarian
  TGI: > 100 µM
HCC-2998 colon
  TGI: > 100 µM
ACHN renal
  TGI: > 100 µM
NCI-H522 lung
  TGI: > 100 µM
HCT-15 colon
  TGI: > 100 µM
IGROV1 ovarian
  TGI: > 100 µM
SK-MEL-2 melanoma
  TGI: > 100 µM
MALME-3M melanoma
  TGI: > 100 µM
MDA-MB-231 breast
  TGI: > 100 µM
RPMI-8226 leukemia
  TGI: > 100 µM
